Assay results taken from US12202808B2, “Substituted antivirals for treating coronavirus infection” (Erasmus University Medical Center Rotterdam, priority 2021, dated 2025).
Read-outs that look alike come from different tables or passages of the source.

Columns and labels:
SARS-CoV-2 [1] = type: cell-based; settings: bronchiolar organoid-derived cultures, MOI 0.1, 2-72 h p.i., most pronounced at 72 h p.i.
SARS-CoV-2 [2] = type: cell-based; settings: bronchioalveolar organoid-derived cultures, 10 μM, MOI 0.1, 2-72 h p.i.
[3] = test system: Bronchiolar organoid-derived cultures; type: cell-based, human

CO[C@H]1CN(C)C(=O)c2cc(NC(=O)NC(C)C)ccc2OC[C@H](C)N(Cc2ccc(-c3ccccn3)cc2)C[C@@H]1C [Bafcilin1]
inhibition of SARS-CoV-2 replication as compared to the DMSO control (SARS-CoV-2 [1]; 1 μM): inhibited SARS-CoV-2 replication | inhibition of SARS-CoV-2 replication as compared to the DMSO control (SARS-CoV-2 [1]; 10 μM): inhibited SARS-CoV-2 replication | inhibition of SARS-CoV-2 replication (SARS-CoV-2 [2]): inhibited SARS-CoV-2 replication | GSEA (Enrichr, COVID-19 Related Gene Sets) of treatment affected genes ([3]; 1 μM, 10 μM and common between both treatments): significant enrichment of genes upregulated upon SARS-CoV-2 infection | number of genes affected (differentially expressed) as compared to DMSO ([3]; 1 μM, 24 h treatment): 653 genes | Enrichr analysis of genes downregulated by treatment ([3]; 10 μM): enriched for genes upregulated upon SARS-CoV-2 or SARS-CoV-1 infection | Enrichr analysis of genes upregulated by treatment ([3]; 10 μM): enriched for genes downregulated upon SARS-CoV-2 or MERS-CoV infection | number of genes differentially expressed in the same direction in both concentration groups ([3]; common to 1 μM and 10 μM, 24 h treatment): 437 genes
